The text below walks through data of patent US6686445B1, “Synthetic antineoplastic agents derived from dolastatin 15 and methods of making same” (Arizona Board of Regents, acting for and on behalf of …, priority 1997, dated 2004).

Experiment [1] concerns tubulin. Particulars: read-out: tubulin polymerization IC50 (new experiments); 1 M monosodium glutamate-1 mM MgCl2; maximum concentration used 40 μM.
The test system of experiment [2] is human CA46 Burkitt lymphoma cells. Particulars: read-out: Human CA46 Burkitt Lymphoma IC50; cells counted after 20 hours. As for the experimental part: (§1) All compounds synthesized were first evaluated for in vitro antitumor activity against murine P388 lymphocytic leukemia cells and against murine L1210 leukemia cells and human CA46 Burkitt lymphoma cells using techniques described by Hamel & Lin (see: HAMEL, E., and LIN, C. M., […], Interaction of combretastatin, a new plant-derived antimitotic agent, with tubulin, Biochemical Pharmacology, 32, 3864). The compounds were also evaluated in the NCI's human tumor 60-cell-line in intro primary screen as described by Monks et al. (see: MONKS, A., SCUDIERO, et al., 1991, New colorimetric cytotoxicity assay for anticancer drug screening, Journal of the National Cancer Institute, 83, 757). Data analyses were performed using methods described by Boyd and Paull (see: BOYD, M. R., et al., 1995, Some practical considerations and applications of the National Cancer Institute in vitro anticancer drug discovery screen, Drug Development Research, 34, 91). A tubulin polymerization inhibition assay was performed according to a modified version of the procedure used previously and described by Muzaffar et al. (see: MUZAFFAR, A., et al., 1990, Antitubulin effects of derivatives of 3-demethylthiocolchicine, methylthio esters of natural colchicinoids, and thioketones derived from thiocolchicine, Comparison with colchicine, Journal of Medicinal Chemistry, 33, 567) to evaluate the effects of dolastatin 15 on cellular microtubule assembly. The new assay for these compounds employed a drug-tubulin preincubation (15 min.) with 10 μM tubulin in 0.8 M glutamate at 30° C., followed by addition of GTP and incubation (20 min.) at 30° C., with tubulin polymerization monitored turbidimetrically in GILFORD recording spectrophotometers.

Experiment [3] concerns murine L1210 leukemia cells. The conditions noted are these: read-out: Mouse Leukemia L1210 IC50; cells counted after 24 hours of growth. As to the method: as §1
In experiment [4] the test system is NCI 60-cell-line in vitro human tumor panel. Particulars: read-out: Mean Panel GI50; mean ± S.D. of triplicate tests (* duplicate). As to the method: as §1
The test system of experiment [5] is human CA46 Burkitt lymphoma cells. Description: mitotic arrest in drug-treated CA46 Burkitt cells. Format: cell-based. The conditions noted are these: 80 nM drug for 20 hours, control cells 3% mitotic.
Experimental: To further verify the assumption that this entire series of compounds is acting intracellularly by interfering with tubulin function, the drug-treated Burkitt cells for mitotic arrest were analyzed.
Experiment [6] deals with tubulin. Description: tubulin polymerization inhibition, 0.8 M glutamate at 30° C. The experiment is classed as biochemical. Particulars: read-out: tubulin assembly IC50. As for the experimental part:
as §1
Since these high molecular weight polymers, like microtubules, scatter light, they make it impossible to quantify drug effects by turbidimetry or centrifugation. […] (no MgCl2 added to reactions).

The subject of experiment [7] is tubulin. Particulars: cited from earlier work.
Experiment [8] concerns murine P388 lymphocytic leukemia cells. Put plainly: growth inhibition of murine P388 lymphocytic leukemia cells. The experiment is classed as cell-based. Particulars: dosage inhibiting tumor cell growth by 50%. As for the experimental part: as §1
For experiment [9], the system named is Erwinia carotovora. Description: antimicrobial disk susceptibility test. The experiment is classed as cell-based. The conditions noted are these: twofold dilutions. As for the experimental part: Antimicrobial disk susceptibility tests were performed according to the method established by the National Committee for Clinical Laboratory Standards (NCCLS, 1997). MUELLER-HINTON agar was used for susceptibility testing of Staphylococcus aureus, Enterococcus faecalis, Micrococcus luteus, Escherichia coli, Enterobacter cloacae, Bacillus subtilis, Pseudomonas aeruginosa, and Erwinia carotovora, Gonococcal Typing agar for Neisseria gonorrhoeae, and YM agar for Candida albicans and Cryptococcus neoformans. Immediately prior to susceptibility assays, compounds were reconstituted in sterile DMSO and twofold dilutions applied to sterile 6-mm disks. Zones of inhibition were read at 16 hours for bacterial cultures (except for M. luteus) and 42 hours for fungal cultures and M. luteus. MIC determinations were performed in duplicate.

Molecules are shown by their SMILES. Read-outs that look alike come from different tables or passages of the source. Where a SMILES comes first, the peptide text is derived from it. [ ]: non-standard residue; d: D form. The star is where a group is joined. X1 = COC1=CC(=O)N(C(=O)[C@@H](O*)C(C)C)[C@H]1Cc1ccccc1; NMe2Val = CC(C)[C@@H](C(=O)*)N(C)C; NH(thiazol-2-yl) = c1csc(N*)n1; NMeV = CN[C@H](C(=O)O)C(C)C; Hiv = CC(C)[C@H](O)C(=O)O; NHPh = c1ccc(N*)cc1

As for `COC1=CC(=O)N(C(=O)[C@@H](OC(=O)[C@@H]2CCCN2C(=O)[C@@H]2CCCN2C(=O)[C@H](C(C)C)N(C)C(=O)[C@@H](NC(=O)[C@H](C(C)C)N(C)C)C(C)C)C(C)C)[C@H]1Cc1ccccc1` [Compound 1, dolastatin 15] (NMe2Val-V[NMeV]PP-X1), the IC50 was 19000 ± 300 nM in experiment [1]; 2 nM in experiment [2]; 4 nM in [3]; 5200 nM in experiment [6]; 23000 nM in [7] (read-out: tubulin polymerization IC50 (Bai et al. 1992), 10 μM tubulin, 1 M monosodium glutamate-1 mM MgCl2, 20 min at 37° C.). Moreover, the 50% growth inhibitory concentration (GI50) in experiment [4] amounted to 1.12 ± 0.5 nM. In addition, the “% Mitotic Cells” value in experiment [5] was 31%. Further, in experiment [7] (relative to dolastatin 10), the “interaction with purified tubulin weaker than that of dolastatin 10” value is listed as “about 20 fold”. The “Mouse Leukemia P388 ED50” value in experiment [8] is reported as 2.4 ng/mL. The “Minimum inhibitory concentration, Erwinia carotovora” value in experiment [9] was 3.12-6.25 μg/disk.

For the compound `CC(C)[C@H](NC(=O)[C@H](C(C)C)N(C)C)C(=O)N(C)[C@H](C(=O)N1CCC[C@H]1C(=O)N1CCC[C@H]1C(=O)O[C@H](C(=O)Nc1ccccc1)C(C)C)C(C)C` [Compound 12a] (NMe2Val-V[NMeV]PP[Hiv]-NHPh), the IC50 in experiment [2] is 2 nM; in [3] it was 3 nM; in experiment [6], 26000 nM. For the same compound, in experiment [4], the 50% growth inhibitory concentration (GI50) was found to be 1.25 ± 0.48 nM. In addition, the “% Mitotic Cells” value in [5] came to 26%. The “Mouse Leukemia P388 ED50” value in experiment [8] turned out to be 0.52 ng/mL.

For `CC(C)[C@H](NC(=O)[C@H](C(C)C)N(C)C)C(=O)N(C)[C@H](C(=O)N1CCC[C@H]1C(=O)N1CCC[C@H]1C(=O)O[C@H](C(=O)Nc1nccs1)C(C)C)C(C)C` [Compound 12p] (NMe2Val-V[NMeV]PP[Hiv]-{NH(thiazol-2-yl)}), the values for the concentration for half-maximal inhibition (IC50) in experiment [2], in experiment [3] and in [6] were 4 nM, 2 nM and 8400 nM, respectively. In addition, the 50% growth inhibitory concentration (GI50) in experiment [4] was 1.2 nM. For the same compound, in [5], the “% Mitotic Cells” value amounted to 40%. Moreover, in [8], the “Mouse Leukemia P388 ED50” value was 0.26 ng/mL. Also, the “Minimum inhibitory concentration, Erwinia carotovora” value in experiment [9] was 50-100 μg/disk.
